In patent publication US20100075942A1, “N-PHENYL-4-PYRIDIN-2-YL-BENZAMIDE DERIVATIVES AS HISTONE DEACYLASE (HDAC) INHIBITORS FOR THE TREATMENT OF CANCER” (ASTRAZENECA AB, priority 2005, published 2010):

Key:
HCT116 cells = test: In vitro assay of inhibition of proliferation in whole cells, MTS (Test (b)); assay type: cell-based; conditions: Homo sapiens, HCT-116, 72 hours treatment
Experimental: Inhibition of proliferation in whole cells was assayed using the Promega cell titer 96 aqueous proliferation assay (Promega #G5421). HCT116 cells were seeded in 96 well plates at 1×10^3 cells/well, and allowed to adhere overnight. They were treated with inhibitors for 72 hours. 20 μl of the tetrazolium dye MTS was added to each well and the plates were reincubated for 3 hours. Absorbance was then measured on a 96 well plate reader at […]. The IC50 values for HDAC inhibitors were determined by performing dose response curves with individual compounds and determining the concentration of inhibitor producing fifty percent decrease in maximal signal (diluent control). • (c) In Vitro Enzyme Assay of Histone Deacetylase Activity in Whole Cells

recombinant human HDAC1 = target: T1, recombinant human HDAC1 (Homo sapiens, UniProt Q13547); test: In vitro enzyme assay of recombinant HDAC1 (Test (a)); assay type: biochemical; conditions: recombinant human HDAC1 produced in Hi5 insect cells; acetylated histone H4 peptide, Fluor de Lys
T1 construct: FLAG (C); made in house; host or cells: Hi5 insect cells
Experimental: HDAC inhibitors were screened against recombinant human HDAC1 produced in Hi5 insect cells. The enzyme was cloned with a FLAG tag at the C-terminal of the gene and affinity purified using Anti-FLAG M2 agarose from SIGMA (A2220).
The deacetylase assays were carried out in a 50 μl reaction. HDAC1 (75 ng of enzyme) diluted in 15 μl of reaction buffer (25 mM TrisHC1 (pH 8), 137 mM NaCl, 2.7 mM KCl, 1 mM MgCl2) was mixed with either buffer alone (10 μl) or buffer containing compound (10 μl for 30 minutes at ambient temperature. 25 μM acetylated histone H4 peptide (KI 174 Biomol) diluted in 25 μl of buffer was then added to the reaction and incubated for one hour at ambient temperature. The reaction was stopped by addition of an equal volume (50 μl) Fluor de Lys developer (Biomol) containing Trichostatin A at 2 μM. The reaction was allowed to develop for 30 minutes at ambient temperature and then fluorescence measured at an excitation wavelength of 360 nm and an emission wavelength of 465 nm. IC50 values for HDAC enzyme inhibitors were determined by performing dose response curves with individual compounds and determining the concentration of inhibitor producing fifty percent decrease in the maximal signal (diluent control). • (b) In Vitro Assay of Inhibition of Proliferation in Whole Cells

T1 sequence (Q13547 whole entry): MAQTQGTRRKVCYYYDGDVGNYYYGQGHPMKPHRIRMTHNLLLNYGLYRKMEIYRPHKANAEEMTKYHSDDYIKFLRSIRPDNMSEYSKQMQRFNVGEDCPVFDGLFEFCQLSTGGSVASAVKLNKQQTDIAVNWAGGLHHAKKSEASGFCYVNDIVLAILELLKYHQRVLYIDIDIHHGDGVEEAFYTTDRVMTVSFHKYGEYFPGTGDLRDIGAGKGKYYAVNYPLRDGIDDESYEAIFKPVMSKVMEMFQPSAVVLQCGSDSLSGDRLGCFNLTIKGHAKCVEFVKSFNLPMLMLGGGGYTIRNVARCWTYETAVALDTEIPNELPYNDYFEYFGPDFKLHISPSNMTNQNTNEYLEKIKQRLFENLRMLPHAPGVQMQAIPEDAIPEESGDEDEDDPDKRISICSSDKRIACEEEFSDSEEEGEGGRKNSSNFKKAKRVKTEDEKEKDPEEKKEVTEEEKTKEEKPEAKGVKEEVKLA

IC50 (HCT116 cells) | IC50 (recombinant human HDAC1) | Compound
0.4 µM | 0.016 µM | Nc1ccccc1NC(=O)c1ccc(-c2ncc(CNCCN3CCCC3)cc2Cl)cc1 [2 (8), N-(2-aminophenyl)-4-(3-chloro-5-{[(2-pyrrolidin-1-ylethyl)amino]methyl}pyridin-2-yl)benzamide]
0.22 µM | 0.009 µM | Nc1ccccc1NC(=O)c1ccc(-c2ncc(C(=O)NCCN3CCCC3)cc2Cl)cc1 [5 (1), N-(2-aminophenyl)-4-[3-chloro-5-(N-2-[pyrrolidin-1-yl]ethyl-carbamoyl)-pyridin-2-yl]benzamide]
0.16 µM | 0.009 µM | CCCCNCc1cnc(-c2ccc(C(=O)Nc3ccccc3N)cc2)c(Cl)c1 [Example 1, N-(2-Aminophenyl)-4-{5-[(butylamino)methyl]-3-chloropyridin-2-yl}benzamide]
